One data set can be described thus: Kinetic solubility. In kind it is physicochemical. Conditions: kinetic from dmso stock.
Data set [1] is described as follows: Stability in mouse plasma. The format is in vitro ADME. Particulars: read-out: Stability (t 1/2) Mouse plasma.
Data set [2] in a line: Stability in mouse liver microsomes. In kind it is in vitro ADME. Conditions: read-out: Stability (t 1/2) Mouse liver microsomes. In general terms: Microsomes from liver hold many membrane-bound enzymes, among them those of drug oxidation.
The subject of another data set is DU145. As to the kind of experiment: Cell activity (cancer cell proliferation), DU145. Conditions: Homo sapiens, DU-145. In kind it is cell-based.
Data set [3] deals with human type II topoisomerase (topo II). The experiment in a line: Topo II inhibitory activity. In kind it is biochemical.
The test system of the next data set is A549. As to the kind of experiment: Cell activity (cancer cell proliferation), A549. Particulars: Homo sapiens. In kind it is cell-based.
The next data set is described as follows: Thermodynamic solubility. The format is physicochemical. Particulars: thermodynamic from solid; Termodinamic.
The next data set deals with MCF7. The experiment in a line: Cell activity (cancer cell proliferation), MCF7. The format is cell-based. Conditions: Homo sapiens.
Another data set deals with HeLa. The experiment in a line: Cell activity (cancer cell proliferation), HeLa. Particulars: Homo sapiens. The format is cell-based.
A further data set relates to G361. As to the kind of experiment: Cell activity (cancer cell proliferation), G361. The format is cell-based. Particulars: Homo sapiens, G-361.
A further data set concerns A375. The experiment in a line: Cell activity (cancer cell proliferation), A375. Conditions: Homo sapiens, A-375. The format is cell-based.

≈ marks a conversion by molar mass, not a printed value. A value given as a limit tells only on which side of the number the result lay.

The source of these data is US10889560B2, “4-amino-2-pyrido-bicyclic pyrimidines and use thereof as topoisomerase II inhibitors” (FONDAZIONE ISTITUTO ITALIANO DI TECNOLOGIA, priority 2016, dated 2021).

`N[C@@H]1CCc2nc(-c3ccncc3)nc(Nc3cccc(F)c3)c2C1` (single isomer, unassigned) [Example E1.2] showed a solubility (kinetic) in the data set “Kinetic solubility” of over 250 µM. In addition, the half-life in data set [1] was over 2 h.

The molecule `N[C@H]1CCc2nc(-c3ccncc3)nc(Nc3cccc(F)c3)c2C1` (single isomer, unassigned) [Example E1.3] gave a solubility (kinetic) in “Kinetic solubility” of over 250 µM. Moreover, in data set [1], the half-life is over 2 h.

For the molecule `NC1CCc2nc(-c3ccncc3)nc(Nc3cccc(F)c3)c2C1` (stereo not drawn) [Example E1.1, N4-(3-fluorophenyl)-2-(4-pyridyl)-5,6,7,8-tetrahydroquinazoline-4,6-diamine], in “Kinetic solubility”, the kinetic solubility is over 250 µM. Besides, the half-life in data set [2] is over 1 h; in [1] it was over 2 h.

In the case of `Cc1cccc(Nc2nc(-c3ccncc3)nc3c2CC(N)CC3)c1` (stereo not drawn) [Example E1.4, N4-(m-tolyl)-2-(4-pyridyl)-5,6,7,8-tetrahydroquinazoline-4,6-diamine], the IC50 amounted to 12.3 µM in the data set with DU145, 200 ± 20 µM in data set [3] and 14.4 µM with A549. Moreover, the solubility (kinetic) in “Kinetic solubility” is 249 µM (≈ 82.5 µg/mL). In data set [1], the half-life was over 2 h.

With `COc1cccc(Nc2nc(-c3ccncc3)nc3c2CC(N)CC3)c1` (stereo not drawn) [Example E1.5, N4-(3-methoxyphenyl)-2-(4-pyridyl)-5,6,7,8-tetrahydroquinazoline-4,6-diamine], the solubility (kinetic) in the data set “Kinetic solubility” was over 250 µM. Further, the half-life in [1] was over 2 h. Besides, the IC50 in the data set with A549 is 26.2 µM.

On to `Nc1cccc(Nc2nc(-c3ccncc3)nc3c2CC(N)CC3)c1` (stereo not drawn) [Example E1.6, N4-(3-aminophenyl)-2-(4-pyridyl)-5,6,7,8-tetrahydroquinazoline-4,6-diamine], for which the IC50 in the data set on DU145 was 37.4 µM; in data set [3], over 500 µM; in the data set on A549 it was 75.9 µM.

Take `CNc1cccc(Nc2nc(-c3ccncc3)nc3c2CC(N)CC3)c1` (stereo not drawn) [Example E1.7, N4-[3-(methylamino)phenyl]-2-(4-pyridyl)-5,6,7,8-tetrahydroquinazoline-4,6-diamine]: the IC50 with DU145 is 24.5 µM; in [3] it was over 200 µM; in the data set on A549 it was 33.4 µM.

For the molecule `NC1CCc2nc(-c3ccncc3)nc(Nc3ccc(F)cc3)c2C1` (stereo not drawn) [Example E1.8, N4-(4-fluorophenyl)-2-(4-pyridyl)-5,6,7,8-tetrahydroquinazoline-4,6-diamine], the kinetic solubility in the data set “Kinetic solubility” was over 250 µM. In [1], the half-life was over 2 h.

For `NC1CCc2nc(-c3ccncc3)nc(Nc3ccc(O)cc3)c2C1` (stereo not drawn) [Example E1.9, 4-[[6-amino-2-(4-pyridyl)-5,6,7,8-tetrahydroquinazolin-4-yl]amino]phenol], the IC50 is 20.8 µM in the data set on DU145, over 500 µM in data set [3] and 74.5 µM in the data set with A549.

On to `NC1CCc2nc(-c3cccnc3)nc(Nc3cccc(F)c3)c2C1` (stereo not drawn) [Example E1.10, N4-(3-fluorophenyl)-2-(3-pyridyl)-5,6,7,8-tetrahydroquinazoline-4,6-diamine], for which the half-maximal inhibitory concentration (IC50) turned out to be 25.4 µM in the data set on DU145 and 21.3 µM in the data set with A549. In addition, the half-life in [1] is over 2 h.

Consider `CN(C)c1ccc(Nc2nc(-c3ccncc3)nc3c2CC(N)CC3)cc1` (stereo not drawn) [Example E1.11, N4-[4-(dimethylamino)phenyl]-2-(4-pyridyl)-5,6,7,8-tetrahydroquinazoline-4,6-diamine], for which, in data set [3], the IC50 was determined as 3.5 ± 0.5 µM. Also, in “Kinetic solubility”, the kinetic solubility was over 250 µM. Further, the figures for the half-life in data set [2] and in data set [1] were over 1 h and over 2 h, respectively. This molecule displayed a solubility in “Thermodynamic solubility” of 452 µM (≈ 163 µg/mL).

Take `Fc1cccc(Nc2nc(-c3ccncc3)nc3c2CNCC3)c1` [Example E2.1, N-(3-fluorophenyl)-2-(4-pyridyl)-5,6,7,8-tetrahydropyrido[4,3-d]pyrimidin-4-amine]: the IC50 in the data set on DU145 was found to be 32.9 µM; in [3], 25 ± 5 µM; with MCF7, 33.4 µM; in the data set with HeLa it was 32.3 µM; in the data set on G361, 6.1 µM; in the data set with A375, 29.6 µM. The same molecule gave an IC50 in the data set with A549 of 23.7 µM. In addition, the kinetic solubility in “Kinetic solubility” is over 250 µM. In addition, the half-life in [2] was 0.65 h; in data set [1], over 2 h. In the data set “Thermodynamic solubility”, the solubility worked out at 96 µM (≈ 30.9 µg/mL).

In the case of `COc1cccc(Nc2nc(-c3ccncc3)nc3c2CNCC3)c1` [Example E2.2, N-(3-methoxyphenyl)-2-(4-pyridyl)-5,6,7,8-tetrahydropyrido[4,3-d]pyrimidin-4-amine], the IC50 worked out at 25 µM with DU145, 120 ± 13 µM in data set [3] and 35.3 µM with A549. The molecule further gave a kinetic solubility in the data set “Kinetic solubility” of over 250 µM. Besides, the half-life in data set [1] was over 2 h.

Consider `Nc1cccc(Nc2nc(-c3ccncc3)nc3c2CNCC3)c1` [Example E2.3, N1-[2-(4-pyridyl)-5,6,7,8-tetrahydropyrido[4,3-d]pyrimidin-4-yl]benzene-1,3-diamine], for which the IC50 with DU145 was found to be 85.2 µM; in [3], 150 ± 18 µM; with A549, 513 µM. In “Kinetic solubility”, this molecule gave a solubility (kinetic) of over 250 µM. The half-life in data set [1] is over 2 h.

As to `CNc1cccc(Nc2nc(-c3ccncc3)nc3c2CNCC3)c1` [Example E2.4, N3-methyl-N1-[2-(4-pyridyl)-5,6,7,8-tetrahydropyrido[4,3-d]pyrimidin-4-yl]benzene-1,3-diamine], the IC50 amounted to 45 µM in the data set with DU145, 160 ± 20 µM in data set [3] and 61.9 µM in the data set on A549. In “Kinetic solubility”, this molecule yielded a kinetic solubility of over 250 µM. For the same molecule, in [1], the half-life was over 2 h.

For the molecule `CN(C)c1cccc(Nc2nc(-c3ccncc3)nc3c2CNCC3)c1` [Example E2.5, N3,N3-dimethyl-N1-[2-(4-pyridyl)-5,6,7,8-tetrahydropyrido[4,3-d]pyrimidin-4-yl]benzene-1,3-diamine], the IC50 with DU145 turned out to be 42.5 µM; in data set [3], 140 ± 20 µM; with A549, 40.8 µM. The molecule also showed a kinetic solubility in the data set “Kinetic solubility” of over 250 µM. Moreover, the half-life in data set [1] is over 2 h.

Molecule `Oc1ccc(Nc2nc(-c3ccncc3)nc3c2CNCC3)cc1` [Example E2.6, 4-[[2-(4-pyridyl)-5,6,7,8-tetrahydropyrido[4,3-d]pyrimidin-4-yl]amino]phenol] gave an IC50 in data set [3] of 200 ± 15 µM.

In data set [3], `Fc1ccccc1Nc1nc(-c2ccncc2)nc2c1CNCC2` [Example E2.7, N-(2-fluorophenyl)-2-(4-pyridyl)-5,6,7,8-tetrahydropyrido[4,3-d]pyrimidin-4-amine] gave an IC50 of 4.5 ± 1 µM. In the data set “Kinetic solubility”, this molecule registered a solubility (kinetic) of over 250 µM. In addition, the figures for the half-life in [2] and in data set [1] were 0.5 h and over 2 h, respectively. Moreover, the solubility in “Thermodynamic solubility” is 596 µM (≈ 192 µg/mL).

On to `Nc1ccc2nc(-c3ccncc3)nc(Nc3cccc(F)c3)c2c1` [Example E3, N4-(3-fluorophenyl)-2-(4-pyridyl)quinazoline-4,6-diamine], for which the IC50 with DU145 was 7.7 µM; in data set [3], 80 ± 15 µM; in the data set on MCF7, 8.6 µM; in the data set with HeLa, 4.7 µM; in the data set on G361 it was 10.4 µM; in the data set on A375 it was 8.3 µM. In the data set on A549, this molecule returned an IC50 of 9.2 µM. In addition, the solubility (kinetic) in the data set “Kinetic solubility” amounted to 17 µM (≈ 5.63 µg/mL). Besides, the half-life is 0.367 h in [2] and 1.48 h in [1]. Moreover, the concentration in solution in the data set “Thermodynamic solubility” (solubility) came to 0.2 µM (≈ 0.0663 µg/mL).

Molecule `Fc1cccc(Nc2nc(-c3ccncc3)nc3ccncc23)c1` [Example E4, N-(3-fluorophenyl)-2-(4-pyridyl)pyrido[4,3-d]pyrimidin-4-amine] registered an IC50 in data set [3] of over 200 µM.

Take `Fc1cccc(Nc2nc(-c3ccncc3)nc3ccccc23)c1` [Example E6, N-(3-fluorophenyl)-2-(4-pyridyl)quinazolin-4-amine]: the “Activity Topo II IC50 (μM)” value in [3] was “inactive”.

What is called kinetic solubility is the concentration staying in solution when a stock, usually in DMSO, is diluted into the medium. Usually IC50 stands for the concentration that gives 50% inhibition. Lower therefore signals greater potency. For orientation: solubility means the concentration that dissolves in the medium under given conditions.
